Results as given in ChEMBL document CHEMBL1201862, “PubChem BioAssay data set” (2004).
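48-hour exposure; five concentrations; linearly interpolated endpoints. GI50 marks 50% less growth.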 Calls of active or inactive are those of the source. Rule as the data show it: active = GI50 up to about 1.1 µM and inactive = higher.

How the values were obtained:
Test in all cases: inhibition of tumour cell growth, NCI panel, 48 h
ACHN = test system: ACHN
CCRF-CEM = test system: CCRF-CEM
SW-620 = test system: SW-620
HL-60 = test system: HL-60
RPMI-8226 = test system: RPMI-8226
KM12 = test system: KM12
SF-539 = test system: SF-539
EKVX = test system: EKVX
SNB-19 = test system: SNB-19
CAKI-1 = test system: CAKI-1
SK-MEL-2 = test system: SK-MEL-2
K562 = test system: K562
COLO 205 = test system: COLO 205
TK-10 = test system: TK-10
Malme-3M = test system: Malme-3M
SK-OV-3 = test system: SK-OV-3
NCI-H522 = test system: NCI-H522
DU-145 = test system: DU-145
UACC-62 = test system: UACC-62
HOP-62 = test system: HOP-62

SMILES	GI50 (ACHN)	GI50 (CCRF-CEM)	GI50 (SW-620)	GI50 (HL-60)	GI50 (RPMI-8226)	GI50 (KM12)	GI50 (SF-539)	GI50 (EKVX)	GI50 (SNB-19)	GI50 (CAKI-1)	GI50 (SK-MEL-2)	GI50 (K562)	GI50 (COLO 205)	GI50 (TK-10)	GI50 (Malme-3M)	GI50 (SK-OV-3)	GI50 (NCI-H522)	GI50 (DU-145)	GI50 (UACC-62)	GI50 (HOP-62)
CCOC(=O)C(C(=O)OCC)c1cc(-c2cc3ccccc3o2)oc(=O)c1C#N	34.6 µM (inactive)	29.6 µM (inactive)	23.1 µM (inactive)	29.7 µM (inactive)	35.6 µM (inactive)	35.6 µM (inactive)	19.3 µM (inactive)	39.7 µM (inactive)	37.3 µM (inactive)	17.4 µM (inactive)	19.8 µM (inactive)	29 µM (inactive)	20.5 µM (inactive)	27.3 µM (inactive)	22.4 µM (inactive)					
Brc1ccccc1-c1ncc(-c2ccccc2)o1	33.6 µM (inactive)	24.9 µM (inactive)	35.6 µM (inactive)	30.5 µM (inactive)	15 µM (inactive)	17.4 µM (inactive)	9.91 µM (inactive)	6.7 µM (inactive)	> 100 µM (inactive)	32.1 µM (inactive)	27.3 µM (inactive)	21.1 µM (inactive)	20.1 µM (inactive)	47.2 µM (inactive)	26.7 µM (inactive)	31.1 µM (inactive)	22.6 µM (inactive)	32.1 µM (inactive)	32.2 µM (inactive)	27.8 µM (inactive)
CCOC(=O)C(OP(=O)(OCC)OCC)C(F)(F)F (configuration not stated)	> 100 µM (inactive)	> 100 µM (inactive)		> 100 µM (inactive)	> 100 µM (inactive)	> 100 µM (inactive)	> 100 µM (inactive)	> 100 µM (inactive)	> 100 µM (inactive)		> 100 µM (inactive)	> 100 µM (inactive)		> 100 µM (inactive)	> 100 µM (inactive)	> 100 µM (inactive)	> 100 µM (inactive)	> 100 µM (inactive)	> 100 µM (inactive)	> 100 µM (inactive)
O=C(NC(Cc1ccc(I)cc1)C(=O)O)c1ccc(Br)cc1 (configuration not stated)		> 66.2 µM (inactive)	> 100 µM (inactive)	> 100 µM (inactive)	46.9 µM (inactive)	> 100 µM (inactive)	> 100 µM (inactive)	17.2 µM (inactive)	> 86.7 µM (inactive)	> 100 µM (inactive)	> 100 µM (inactive)	> 73.1 µM (inactive)	> 100 µM (inactive)		80.9 µM (inactive)	> 100 µM (inactive)	64.9 µM (inactive)		> 67.3 µM (inactive)	> 100 µM (inactive)
Cc1cccc(C(O)c2cccnc2)c1O (configuration not stated)	> 100 µM (inactive)	> 100 µM (inactive)	> 100 µM (inactive)	> 100 µM (inactive)	> 100 µM (inactive)	> 100 µM (inactive)	> 100 µM (inactive)	> 100 µM (inactive)	> 100 µM (inactive)	> 100 µM (inactive)		> 100 µM (inactive)	> 100 µM (inactive)	> 100 µM (inactive)	> 100 µM (inactive)		> 100 µM (inactive)	> 100 µM (inactive)	35.7 µM (inactive)	> 100 µM (inactive)
O=C(c1ccccc1)C1C(c2ccccc2)N1S(=O)(=O)c1ccccc1 (configuration not stated)		> 100 µM (inactive)	> 100 µM (inactive)		> 100 µM (inactive)	> 100 µM (inactive)	> 100 µM (inactive)	> 100 µM (inactive)		> 100 µM (inactive)	> 100 µM (inactive)	> 100 µM (inactive)	> 100 µM (inactive)	> 100 µM (inactive)	> 100 µM (inactive)	> 100 µM (inactive)	> 100 µM (inactive)	> 100 µM (inactive)	> 100 µM (inactive)	> 100 µM (inactive)
Nc1nnc2ccc(Cl)cc2[n+]1[O-]	62.7 µM (inactive)	29.6 µM (inactive)	36.5 µM (inactive)	29.3 µM (inactive)	> 100 µM (inactive)	> 100 µM (inactive)		47.6 µM (inactive)	> 100 µM (inactive)	> 100 µM (inactive)	49.3 µM (inactive)	21.8 µM (inactive)	24.4 µM (inactive)	> 100 µM (inactive)	54 µM (inactive)	28.6 µM (inactive)	38 µM (inactive)	> 100 µM (inactive)	49 µM (inactive)	> 100 µM (inactive)
O=c1c(-c2ccccc2)c(SCCN2CCCCCC2)n(-c2ccccc2)c(=S)n1-c1ccccc1	54.6 µM (inactive)	8.45 µM (inactive)	37.2 µM (inactive)	11 µM (inactive)	20.7 µM (inactive)	27.3 µM (inactive)	> 100 µM (inactive)	17.7 µM (inactive)		22.9 µM (inactive)		19.6 µM (inactive)	30.4 µM (inactive)	48.4 µM (inactive)	12.5 µM (inactive)	> 100 µM (inactive)	20.3 µM (inactive)	23.6 µM (inactive)	48.9 µM (inactive)	46.6 µM (inactive)
CC1=CC[C@H](C)C(C)(C)C1/C=C/C(C)=C/CC[C@@]1(CO)[C@H](CCCO)/C(=C(/C)C=O)CC[C@]1(C)O (some centres not stated)	3.68 µM (inactive)	4.21 µM (inactive)	2.01 µM (inactive)	0.897 µM (active)		1.61 µM (inactive)	6.78 µM (inactive)	2.2 µM (inactive)	8.51 µM (inactive)	3.61 µM (inactive)	15.8 µM (inactive)	1.31 µM (inactive)	1.05 µM (active)	5.5 µM (inactive)	3.27 µM (inactive)	25.2 µM (inactive)	4.06 µM (inactive)			
